What was measured:
[1] = test system: SOCE (store operated calcium entry) in CHO cells; assay: Assay of SOCE (store operated calcium entry)-inhibiting action; format: cell-based, Chinese hamster; settings: for inhibition at 10 µM / inhibition at 30 µM / inhibition at 100 µM / IC50: Cricetulus griseus, CHO; for inhibition at 10 µM / inhibition at 30 µM / inhibition at 100 µM / SOCE level (percentage of inhibition): CHO cells, thapsigargin; for inhibition at 10 µM / inhibition at 30 µM / inhibition at 100 µM: read-out: SOCE level (percentage of inhibition); for IC50: Table 1
Method: The extracellular fluid (i.e., medium) of cultured Chinese hamster ovary (CHO) cells was replaced by BSS containing no calcium. One minute later, a test compound was added. Two minutes later, 1 μM thapsigargin was added to cause depletion of the intracellular calcium store. Nine minutes later, calcium chloride (final concentration: 2 mM) was added to the extracellular fluid. The SOCE-inhibiting action levels at different compound concentrations after the addition of calcium chloride were determined as the percentage of inhibition (%) by evaluating the influence of the compound on the degree of increase in the intracellular calcium concentration.
(§1) Hereafter, the numerals in parentheses written after the TG level, the SOCE level, and the IICR level correspond to the test compound concentrations. The number following the name of each title compound used in the Examples below represents a compound ID number designated arbitrarily by the present inventors.

[2] = test system: IICR (IP3 induced calcium release) in CHO cells; assay: Assay of IICR (IP3 induced calcium release)-inhibiting action; format: cell-based, Chinese hamster; settings: for inhibition at 10 µM / inhibition at 30 µM / inhibition at 100 µM / IC50: Cricetulus griseus, CHO; for inhibition at 10 µM / inhibition at 30 µM / inhibition at 100 µM / IICR level (percentage of inhibition): CHO cells, 10 μM ATP; for inhibition at 10 µM / inhibition at 30 µM / inhibition at 100 µM: read-out: IICR level (percentage of inhibition); for IC50: Table 1
Method: The extracellular fluid (i.e., medium) of cultured CHO cells was replaced by BSS containing calcium. One minute later, a test compound was added. Two minutes later, 10 μM ATP was added. The IICR-inhibiting action levels at different compound concentrations after the addition of ATP were determined as the percentage of inhibition (%) by evaluating the influence of the compound on the degree of increase in the intracellular calcium concentration.
as §1

SMILES | inhibition at 10 µM ([1]; test compound 10 μmol) | inhibition at 30 µM ([1]; test compound 30 μmol) | inhibition at 100 µM ([1]; test compound 100 μmol) | inhibition at 10 µM ([2]; test compound 10 μmol) | inhibition at 30 µM ([2]; test compound 30 μmol) | inhibition at 100 µM ([2]; test compound 100 μmol) | SOCE level (percentage of inhibition) ([1]; test compound 10 μmol) | SOCE level (percentage of inhibition) ([1]; test compound 30 μmol) | SOCE level (percentage of inhibition) ([1]; test compound 100 μmol) | IICR level (percentage of inhibition) ([2]; test compound 10 μmol) | IICR level (percentage of inhibition) ([2]; test compound 30 μmol) | IICR level (percentage of inhibition) ([2]; test compound 100 μmol) | IC50 [1] | IC50 [2]
CN(CCO)CCC(=O)c1ccc2ccccc2c1 [Example 100, 2-(N-methylhydroxyethyl)aminoethyl-2-naphthylketone] | 0% | 0% | 20% | 0% | 0% | 60% | – | – | – | – | – | – | – | –
O=C(CCN(CCO)CCO)c1cnccn1 [Example 102, N,N-bis(2-hydroxyethyl)aminoethyl-2-pyrazylketone] | 0% | 0% | 0% | 0% | 20% | 100% | – | – | – | – | – | – | – | –
CC(C)N(CCC(=O)c1ccc(Cc2ccccc2)cc1)Cc1ccccc1 [Example 103, 2-(N-isopropylbenzyl)aminoethyl-4-benzylphenylketone] | – | – | – | – | – | – | 10% | 50% | 60% | 80% | 80% | 100% | – | –
CN(CCC(=O)c1ccc(Cc2ccccc2)cc1)Cc1ccccc1 [Example 104, 2-(N-methylbenzyl)aminoethyl-4-benzylphenylketone] | 0% | 10% | 70% | 40% | 20% | 90% | – | – | – | – | – | – | – | –
CC(C)(C)N(CCC(=O)c1ccc(Cc2ccccc2)cc1)Cc1ccccc1 [Example 105, 2-(N-t-butylbenzyl)aminoethyl-4-benzylphenylketone] | 0% | 20% | 40% | 40% | 70% | 90% | – | – | – | – | – | – | – | –
CC(C)N(CCC(=O)c1cccnc1)Cc1ccccc1 [Example 106, 2-(N-isopropylbenzyl)aminoethyl-3-pyridylketone] | 0% | 0% | 0% | 90% | 90% | 100% | – | – | – | – | – | – | > 100 µM | < 10 µM
CC(C)N(CCC(=O)c1ccncc1)Cc1ccccc1 [Example 107, 2-(N-isopropylbenzyl)aminoethyl-4-pyridylketone] | 0% | 20% | 30% | 30% | 90% | 90% | – | – | – | – | – | – | > 100 µM | < 10 µM
CCCCN(CCO)CCC(=O)c1cnccn1 [Example 108, 2-(N-butyl-2-hydroxyethyl)aminoethyl-2-pyrazinylketone] | 0% | 0% | 0% | 0% | 10% | 80% | – | – | – | – | – | – | – | –
CC(C)N(CCC(=O)c1ccco1)Cc1ccccc1 [Example 109, 2-(N-isopropylbenzyl)aminoethyl-2-furylketone] | 0% | 0% | 10% | 20% | 90% | 70% | – | – | – | – | – | – | – | –
CC(C)N(CCC(=O)c1ccc[nH]1)Cc1ccccc1 [Example 110, 2-(N-isopropylbenzyl)aminoethyl-2-pyrroleketone] | 0% | 0% | 0% | 20% | 40% | 100% | – | – | – | – | – | – | – | –
CCN(CCC(=O)c1cnccn1)Cc1ccccc1 [Example 111, 2-(N-ethylbenzyl)aminoethyl-2-pyrazinylketone] | 0% | 0% | 0% | 30% | 80% | 95% | – | – | – | – | – | – | – | –
O=C(CCNCCS)c1ccc(Oc2ccccc2)cc1 [Example 112, 2-(N-mercaptoethyl)aminoethyl-4-phenoxyphenylketone] | 0% | 0% | 30% | 20% | 30% | 40% | – | – | – | – | – | – | – | –
O=C(CCNCCC1=NCN=C1)c1ccc(Oc2ccccc2)cc1 [Example 113] | 0% | 10% | 40% | 70% | 90% | 100% | – | – | – | – | – | – | – | –
